This assay concerns the target T1, KRAS G12C and cRAF interaction (Homo sapiens, UniProt P01116, C118S/C51S/C80L/G12C).
T1 construct: truncated version comprising amino acids 1-169
Put plainly: Inhibition of KRAS G12C and cRAF binding (AlphaScreen). Format: biochemical. As to conditions: KRAS G12C (Cys-light, aa 1-169) preloaded with GMPPNP, cRaf RBD (aa 50-131), 2 hours incubation. The procedure:
The AlphaScreen technology was used to determine IC50s for compound inhibition of KRAS G12C (present as the Cys-light (C51S, C80L and C118S), truncated version comprising amino acids 1-169) and cRAF interaction. Compounds were diluted in 100% DMSO and each compound concentration was spotted at 200 nl/well onto low volume, white 384 well plates. The KRAS G12C contained a biotin-AviTag and the cRaf, as Ras-binding domain (amino acids 50-131, RBD), was GST-tagged. KRAS G12C was preloaded with the GTP analogue Guanosine 5′-[β,γ-imido]triphosphate (GMPPNP). The KRAS G12C was diluted in 25 mM Hepes, pH 7.4, 150 mM NaCl, 5 mM MgCl2, 0.01% TritonX-100 and 10 μM GMPPNP and added at 10 μl/well to compound-spotted plates resulting in a DMSO concentration of 2%. Plates were incubated for 2 hours. A mixture of RBD and the AlphaScreen streptavidin donor and glutathione acceptor beads diluted in 25 mM Hepes, pH 7.4, 150 mM NaCl, 5 mM MgCl2, 0.01% TritonX-100 and 2% DMSO was then added at 10 μl/well and incubated for 60-90 minutes before the samples were read for emission at 570 nm after excitation of the donor beads at 680 nm. All incubations were performed at room temperature. The final top compound concentration was 50 μM with 1:3 titrations for 10-point dose response curves. Final assay conditions were 0.5 nM KRAS G12C, 0.75 nM RBD and 5 μg/ml each of AlphaScreen donor and acceptor beads. IC50S were determined using nonlinear regression fit of [inhibitor] vs. response (4 parameters).
A counter assay was also set up to rule out inhibitors of the AlphaScreen technology itself. Compound plates were incubated for 2 hours as above with buffer only.
The AlphaScreen beads were added as above except biotin-AviTag-GST was substituted for the RBD. Samples were read and analyzed as above.
T1 sequence (P01116 1-169 isoform P01116-2 G12C/C51S/C80L/C118S): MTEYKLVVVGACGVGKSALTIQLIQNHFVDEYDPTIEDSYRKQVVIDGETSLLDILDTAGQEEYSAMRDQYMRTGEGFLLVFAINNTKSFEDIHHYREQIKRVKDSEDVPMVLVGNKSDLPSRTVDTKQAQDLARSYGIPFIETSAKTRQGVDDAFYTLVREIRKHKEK
What is called IC50 is the midpoint of a concentration-inhibition curve. Lower therefore signals higher potency. As for `C#Cc1c(F)ccc2cccc(-c3ncc4c(N5CCN(C(=O)/C=C/c6cc(C)nc(C)n6)C6(COC6)C5)nc(OC[C@@]56CCCN5C[C@H](F)C6)nc4c3F)c12` [Example 48, (E)-3-(2,6-dimethylpyrimidin-4-yl)-1-(8-(7-(8-ethynyl-7-fluoronaphthalen-1-yl)-8-fluoro-2-(((2R,7aS)-2-fluorotetrahydro-1H-pyrrolizin-7a(5H)-yl)methoxy)pyrido[4,3-d]pyrimidin-4-yl)-2-oxa-5,8-diazaspiro[3.5]nonan-5-yl) prop-2-en-1-one], the 50% inhibitory concentration (IC50) lay in the range of 10 to 100 nM. In turn, `C=CC(=O)N1[C@H](C)CN(c2nc(OC[C@@]34CCCN3C[C@H](F)C4)nc3c(F)c(-c4cccc5ccc(F)c(F)c45)ncc23)CC12COC2` [Example 64, 1-((R)-8-(7-(7,8-difluoronaphthalen-1-yl)-8-fluoro-2-(((2R,7aS)-2-fluorotetrahydro-1H-pyrrolizin-7a(5H)-yl)methoxy)pyrido[4,3-d]pyrimidin-4-yl)-6-methyl-2-oxa-5,8-diazaspiro[3.5]nonan-5-yl) prop-2-en-1-one] showed an IC50 of less than 10 nM. The figure for `C#Cc1c(F)ccc2cccc(-c3ncc4c(N5CCN(C(=O)/C(F)=C/c6cc(C)nc(C)n6)C6(COC6)C5)nc(OC[C@@]56CCCN5C[C@H](F)C6)nc4c3F)c12` [Example 63, (Z)-3-(2,6-dimethylpyrimidin-4-yl)-1-(8-(7-(8-ethynyl-7-fluoronaphthalen-1-yl)-8-fluoro-2-(((2R,7aS)-2-fluorotetrahydro-1H-pyrrolizin-7a(5H)-yl)methoxy)pyrido[4,3-d]pyrimidin-4-yl)-2-oxa-5,8-diazaspiro[3.5]nonan-5-yl)-2-fluoroprop-2-en-1-one] is less than 10 nM. As to `Cc1nccc(/C=C/C(=O)N2CCN(c3nc(OC[C@@]45CCCN4C[C@H](F)C5)nc4c(F)c(-c5ccccc5C(F)F)ncc34)CC23COC3)n1` [Example 94], the IC50 was no less than 500 nM.

As for `C=CC(=O)N1[C@H](C)CN(c2nc(OC[C@@]34CCCN3C[C@H](F)C4)nc3c(F)c(-c4cccc5cccc(Cl)c45)ncc23)CC12COC2` [Example 72], the IC50 lay in the range of 100 to 500 nM. The figure for `C=CC(=O)N1CCN(c2nc(OC[C@@]34CCCN3C[C@H](F)C4)nc3c(F)c(-c4cccc5cccc(Cl)c45)ncc23)C[C@@]12CCOC2` [Example 88] is 100 to 500 nM. As for `C=CC(=O)N1CCN(c2nc(OC[C@@]34CCCN3C[C@H](F)C4)nc3c(F)c(-c4cccc5cccc(Cl)c45)ncc23)C[C@]12CCOC2` [Example 89], the 50% inhibitory concentration (IC50) was no less than 500 nM. Then `C=CC(=O)N1CCN(c2nc(OC[C@@]34CCCN3C[C@H](F)C4)nc3c(F)c(-c4cc(O)cc(Cl)c4C4CC4)ncc23)CC12CCOC2` (stereo partly drawn) [Example 85, 1-(9-(7-(3-chloro-2-cyclopropyl-5-hydroxyphenyl)-8-fluoro-2-(((2R,7aS)-2-fluorotetrahydro-1H-pyrrolizin-7a(5H)-yl)methoxy)pyrido[4,3-d]pyrimidin-4-yl)-2-oxa-6,9-diazaspiro[4.5]decan-6-yl) prop-2-en-1-one], with less than 10 nM. The figure for `O=C(/C=C/CN1[C@@H]2CC[C@H]1COC2)N1CCN(c2nc(OC[C@@]34CCCN3C[C@H](F)C4)nc3c(F)c(-c4cccc(Cl)c4C4CC4)ncc23)CC12COC2` [Example 24, (E)-4-((1R,5S)-3-oxa-8-azabicyclo[3.2.1]octan-8-yl)-1-(8-(7-(3-chloro-2-cyclopropylphenyl)-8-fluoro-2-(((2R,7aS)-2-fluorotetrahydro-1H-pyrrolizin-7a(5H)-yl)methoxy)pyrido[4,3-d]pyrimidin-4-yl)-2-oxa-5,8-diazaspiro[3.5]nonan-5-yl) but-2-en-1-one] is less than 10 nM; for `C=C(F)C(=O)N1CCN(c2nc(OC[C@@]34CCCN3C[C@H](F)C4)nc3c(F)c(-c4cc(O)cc(Cl)c4C4CC4)ncc23)CC12COC2` [Example 79] it is no less than 500 nM; for `C=CC(=O)N1CCN(c2nc(OC[C@@]34CCCN3C[C@H](F)C4)nc3c(F)c(-c4ccc(F)c5sc(N)nc45)c(C(F)(F)F)cc23)C[C@]12CCOC2` [Example 92] it is 10 to 100 nM. Turning to `C=CC(=O)N1CCN(c2nc(OC[C@@]34CCCN3C[C@H](F)C4)nc3c(F)c(-c4cccc5ccc(F)c(F)c45)ncc23)CC12CCOC2` (some centres unmarked) [Example 82], the half-inhibitory concentration (IC50) is 10 to 100 nM. The figure for `O=C(/C=C/CN1[C@@H]2CC[C@H]1COC2)N1CCN(c2nc(OCC34CCCN3CCC4)nc3c(F)c(-c4cccc5cccc(Cl)c45)ncc23)CC12COC2` [Example 36, (E)-4-((1R,5S)-3-oxa-8-azabicyclo[3.2.1]octan-8-yl)-1-(8-(7-(8-chloronaphthalen-1-yl)-8-fluoro-2-((tetrahydro-1H-pyrrolizin-7a(5H)-yl)methoxy)pyrido[4,3-d]pyrimidin-4-yl)-2-oxa-5,8-diazaspiro[3.5]nonan-5-yl) but-2-en-1-one] is less than 10 nM; for `CN(C)C/C=C/C(=O)N1CCN(c2nc(OC[C@@]34CCCN3C[C@H](F)C4)nc3c(F)c(-c4cccc(Cl)c4C(F)(F)F)ncc23)CC12COC2` [Example 71] it is 100 to 500 nM; for `Cc1nccc(/C=C/C(=O)N2CCN(c3nc(OCC45CCCN4CCC5)nc4c(F)c(-c5cccc6ccc(F)c(Cl)c56)ncc34)CC23COC3)n1` [Example 11, (E)-1-(8-(7-(8-chloro-7-fluoronaphthalen-1-yl)-8-fluoro-2-((tetrahydro-1H-pyrrolizin-7a(5H)-yl)methoxy)pyrido[4,3-d]pyrimidin-4-yl)-2-oxa-5,8-diazaspiro[3.5]nonan-5-yl)-3-(2-methylpyrimidin-4-yl) prop-2-en-1-one] it is 100 to 500 nM. Take `CN(C)C/C=C/C(=O)N1CCN(c2nc(OC[C@@]34CCCN3C[C@H](F)C4)nc3c(F)c(-c4cccc5cccc(Cl)c45)ncc23)CC12COC2` [Example 25, (E)-1-(8-(7-(8-chloronaphthalen-1-yl)-8-fluoro-2-(((2R,7aS)-2-fluorotetrahydro-1H-pyrrolizin-7a(5H)-yl)methoxy)pyrido[4,3-d]pyrimidin-4-yl)-2-oxa-5,8-diazaspiro[3.5]nonan-5-yl)-4-(dimethylamino)but-2-en-1-one]: the IC50 was in the range of 10 to 100 nM.

`C#Cc1c(F)ccc2cccc(-c3ncc4c(N5CCN(C(=O)/C=C/CN6CC[C@@H](F)C6)C6(COC6)C5)nc(OC[C@@]56CCCN5C[C@H](F)C6)nc4c3F)c12` [Example 44, (E)-1-(8-(7-(8-ethynyl-7-fluoronaphthalen-1-yl)-8-fluoro-2-(((2R,7aS)-2-fluorotetrahydro-1H-pyrrolizin-7a(5H)-yl)methoxy)pyrido[4,3-d]pyrimidin-4-yl)-2-oxa-5,8-diazaspiro[3.5]nonan-5-yl)-4-((R)-3-fluoropyrrolidin-1-yl) but-2-en-1-one]: the half-maximal inhibitory concentration (IC50) was less than 10 nM.

Compound `C=CC(=O)N1CCN(c2nc(OC[C@@]34CCCN3C[C@H](F)C4)nc3c(F)c(-c4ccc(F)c5sc(N)nc45)c(C(F)(F)F)cc23)CC12CCOC2` (some centres unmarked) [Example 90] came in with an IC50 of 10 to 100 nM. Then `CCc1c(F)ccc2cccc(-c3ncc4c(N5CCN(C(=O)/C(F)=C/c6ccnc(C)n6)C6(COC6)C5)nc(OC[C@@]56CCCN5C[C@H](F)C6)nc4c3F)c12` [Example 62, (Z)-1-(8-(7-(8-ethyl-7-fluoronaphthalen-1-yl)-8-fluoro-2-(((2R,7aS)-2-fluorotetrahydro-1H-pyrrolizin-7a(5H)-yl)methoxy)pyrido[4,3-d]pyrimidin-4-yl)-2-oxa-5,8-diazaspiro[3.5]nonan-5-yl)-2-fluoro-3-(2-methylpyrimidin-4-yl) prop-2-en-1-one], with less than 10 nM; and `C=CC(=O)N1CC(C)N(c2nc(OC[C@@]34CCCN3C[C@H](F)C4)nc3c(F)c(-c4cccc5cccc(Cl)c45)ncc23)CC12COC2` (some centres unmarked) [Example 65], with 10 to 100 nM. The figure for `CN1CC[C@@H]1/C=C/C(=O)N1CCN(c2nc(OC[C@@]34CCCN3C[C@H](F)C4)nc3c(F)c(-c4cccc5ccc(F)c(F)c45)ncc23)CC12COC2` [Example 67] is 10 to 100 nM. Then `O=C(/C=C/CN1CCOCC1)N1CCN(c2nc(OC[C@@]34CCCN3C[C@H](F)C4)nc3c(F)c(-c4cc(O)cc(Cl)c4C4CC4)ncc23)CC12COC2` [Example 30, (E)-1-(8-(7-(3-chloro-2-cyclopropyl-5-hydroxyphenyl)-8-fluoro-2-(((2R,7aS)-2-fluorotetrahydro-1H-pyrrolizin-7a(5H)-yl)methoxy)pyrido[4,3-d]pyrimidin-4-yl)-2-oxa-5,8-diazaspiro[3.5]nonan-5-yl)-4-morpholinobut-2-en-1-one], with less than 10 nM; and `C=CC(=O)N1CCN(c2nc(OC[C@@]34CCCN3C[C@H](F)C4)nc3c(F)c(-c4cccc5ccc(F)c(F)c45)ncc23)C[C@@]12CCOC2` [Example 80], with 10 to 100 nM.

The record behind these values is patent US20260207615A1, “FLUOROPYRIDOPYRIMIDINE AND FLUOROQUINAZOLINE DERIVATIES AND METHODS OF USE THEREOF” (Frontier Medicines Corporation, priority 2022, published 2026).
